From patent US10308620B2, “Muscarinic M1 receptor positive allosteric modulators” (SUVEN LIFE SCIENCES LIMITED, priority 2015, dated 2019)

Columns and labels:
[1] = molecular target: recombinant human Muscarinic M1 receptor (Homo sapiens (Human), UniProt P11229); assay: Allosteric potency EC50, CHO cells with pCRE-Luc reporter, in presence of EC20 of acetylcholine; assay type: cell-based; settings: 4 hours
Method in brief: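 Stable CHO cells carrying human M1 receptor and a pCRE-Luc reporter, serum-starved overnight, then exposed to rising compound concentrations plus EC20 acetylcholine in OptiMEM for 4 h at 37 °C. Luciferase read after lysis. EC50 is the concentration giving 50% luciferase stimulation with EC20 acetylcholine present.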

[2] = tested on: Male Wistar rats; assay: Object recognition task model (time induced memory deficit); assay type: in vivo, rat; settings: 10 mg/kg, p.o.; for Exploration time mean ± S.E.M, Familiar object / Exploration time mean ± S.E.M, Novel object: choice trial 24 hours after T1
Method: Object Recognition Task Model
The cognition enhancing properties of compounds of this invention were estimated by using this model.
Male Wistar rats (8-10 weeks old) were used as experimental animals. Four animals were housed in each cage. Animals were kept on 20% food deprivation from a day prior to experimentation. Water was provided ad libitum throughout the experiment. Animals were maintained on a 12 hours light/dark cycle in temperature and humidity controlled room. The experiment was carried out in an open field made up of acrylic. Rats were habituated to individual arenas (open field) for 1 hour in the absence of any objects on day 1.
One group of 12 rats received vehicle and another set of animals received test compounds or test compounds and Donepezil, before the familiar (T1) and choice (T2) trials. During the familiarization phase, (T1), the rats were placed individually in the arena for 3 minutes, in which two identical objects (a1 and a2) were positioned 10 cm from the wall. 24 hours after T1, trial for long-term memory test was performed. The same rats were placed in the same arena as they were placed in T1 trial. During the choice phase (T2) rats were allowed to explore the arena for 3 minutes in presence of a copy of familiar object (a3) and one novel object (b). During the T1 and T2 trial, explorations of each object (defined as sniffing, licking, chewing or having moving vibrissae whilst directing the nose towards the object at a distance of less than 1 cm) were recorded using stopwatch.
T1 is the total time spent exploring the familiar objects (a1+a2).
T2 is the total time spent exploring the familiar object and novel object (a3+b). Discriminative index=Time spent with novel object/(time spent with novel and familiar object).
The object recognition test was performed as described in Behavioural Brain Research, 1988, 31, 47-59.

[3] = Rodent pharmacokinetic study; assay type: in vivo, rat; settings: male Wistar rats; for clearance / half-life / Vd / Cmax / Tmax / bioavailability: rat, plasma; for Vd: read-out: Vz; for bioavailability: 3 mg/kg oral vs 1 mg/kg i.v.
Method: Rodent Pharmacokinetic Study
Male Wistar rats (260±50 grams) were used as experimental animals. Animals were housed individually in polypropylene cage. Two days prior to study, male Wistar rats were anesthetized with isoflurane for surgical placement of jugular vein catheter. Rats were randomly divided for oral (3 mg/kg) and intravenous (1 mg/kg) dosing (n=3/group) and fasted overnight before oral dosing (p.o.). However, rats allocated to intravenous (i.v.) dosing food and water was provided ad libitum.
At pre-determined point, blood was collected through jugular vein and replenished with an equivalent volume of normal saline. Collected blood was transferred into a labeled eppendorf tube containing 10 μL of heparin as an anticoagulant. Typically blood samples were collected at following time points: 0.08, 0.25, 0.5, 1, 2, 4, 6, 8, and 24 hours post dose. Blood was centrifuged at 4000 rpm for 10 minutes. Plasma was separated and stored frozen at −80° C. until analysis. The concentrations of the test compounds were quantified in plasma by qualified LC-MS/MS method using suitable extraction technique. The test compounds were quantified in the calibration range around 1-1000 ng/mL in plasma. Study samples were analyzed using calibration samples in the batch and quality control samples spread across the batch.
Pharmacokinetic parameters Cmax, Tmax, AUCt, T1/2, clearance, Vz and bioavailability were calculated by non-compartmental model using standard non-compartmental model by using Phoenix WinNonlin 6.0.2 or 6.0.3 version Software package.

[4] = Rodent brain penetration study; assay type: in vivo; settings: rat, oral, 3 mg/kg, p.o., male Wistar rats, read-out: Single dose Rat Brain Penetration (Cb/Cp)
Method: Rodent Brain Penetration Study
Male Wistar rats (260±40 grams) were used as experimental animals. Three animals were housed in each cage. Animals were given water and food ad libitum throughout the experiment and maintained on a 12 hours light/dark cycle.
Brain penetration was determined in discrete manner in rats. One day prior to dosing day, male Wistar rats were acclimatized and randomly grouped according to their weight. At each time point (0.50, 1 and 2 hours) n=3 animals were used.
The test compounds were suitably preformulated and administered orally at (free base equivalent) 3 mg/kg. Blood samples were removed via cardiac puncture by using isoflurane anesthesia. The animals were sacrificed to collect brain tissue. Plasma was separated and brain samples were homogenized and stored frozen at −20° C. until analysis. The concentrations of the test compounds in plasma and brain were determined using LC-MS/MS method.
The test compounds were quantified in plasma and brain homogenate by qualified LC-MS/MS method using suitable extraction technique. The test compounds were quantified in the calibration range of 1-500 ng/mL in plasma and brain homogenate. Study samples were analyzed using calibration samples in the batch and quality control samples spread across the batch. Extent of brain-plasma ratio was calculated (Cb/Cp).

Sequence of recombinant human Muscarinic M1 receptor (P11229 whole entry): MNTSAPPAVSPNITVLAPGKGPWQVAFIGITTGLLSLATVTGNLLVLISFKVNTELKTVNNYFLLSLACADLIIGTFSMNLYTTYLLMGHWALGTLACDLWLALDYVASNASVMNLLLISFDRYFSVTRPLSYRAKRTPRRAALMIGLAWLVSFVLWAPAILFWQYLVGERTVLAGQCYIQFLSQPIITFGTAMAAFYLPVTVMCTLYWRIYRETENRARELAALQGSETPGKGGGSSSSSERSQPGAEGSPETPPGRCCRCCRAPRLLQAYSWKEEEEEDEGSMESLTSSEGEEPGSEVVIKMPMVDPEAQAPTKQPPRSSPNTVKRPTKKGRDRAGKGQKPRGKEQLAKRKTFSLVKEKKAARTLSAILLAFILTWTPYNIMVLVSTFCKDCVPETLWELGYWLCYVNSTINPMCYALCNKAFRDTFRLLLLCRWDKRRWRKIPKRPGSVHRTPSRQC

## O=C(N[C@H]1CCCC[C@@H]1O)C1=CN(Cc2ccccc2)c2ccccc2O1 [Example 4, N-(cis-1S,2S-2-Hydroxycyclohexyl)-4-benzyl-4H-benzo[1,4]oxazine-2-carboxamide]
[1]
  EC50: 1430 nM
[2]
  Inference: Active
  Exploration time mean ± S.E.M, Familiar object: 7.43 ± 0.67 s
  Exploration time mean ± S.E.M, Novel object: 11.21 ± 1.26 s
[3]; 1 mg/kg i.v. (bolus)
  AUC0-t: 415 ± 17 ng·h/mL
[3]; 3 mg/kg oral (gavage)
  AUC0-t: 607 ± 62 ng·h/mL
  Cmax: 245 ± 27 ng/mL
  Tmax: 0.58 ± 0.38 h
  half-life: 90 ± 18 min
[3]; iv, 1 mg/kg i.v. (bolus)
  clearance: 40 ± 2 mL/min/kg
  half-life: 84 ± 6 min
  Vd: 4.7 ± 0.1 L/kg
[3]
  bioavailability: 49 ± 5%
[4]
  Kp: 1.43 ± 0.01

## COc1ccc(CN2C=C(C(=O)N[C@H]3CCCC[C@@H]3O)Oc3ccccc32)cc1 [Example 5, N-(cis-1S, 2S-2-Hydroxycyclohexyl)-4-(4-methoxybenzyl)-4H-benzo[1,4]oxazine-2-carboxamide]
[1]
  EC50: 135 nM
[3]; 1 mg/kg i.v. (bolus)
  AUC0-t: 1150 ± 62 ng·h/mL
[3]; 3 mg/kg oral (gavage)
  AUC0-t: 3980 ± 533 ng·h/mL
  Cmax: 430 ± 35 ng/mL
  Tmax: 2.83 ± 2.02 h
  half-life: 234 ± 6 min
[3]; iv, 1 mg/kg i.v. (bolus)
  clearance: 14 ± 1 mL/min/kg
  half-life: 270 ± 12 min
  Vd: 5.6 ± 0.5 L/kg
[3]
  bioavailability: 115 ± 15%
[4]
  Kp: 0.9 ± 0.15

## O=C(N[C@H]1CCCC[C@@H]1O)C1=CN(Cc2cccc(C(F)(F)F)c2)c2ccccc2O1 [Example 17, N-(cis-1S, 2S-2-Hydroxycyclohexyl)-4-(3-trifluoromethylbenzyl)-4H-benzo[1,4]oxazine-2-carboxamide]
[1]
  EC50: 149 nM
[3]; 1 mg/kg i.v. (bolus)
  AUC0-t: 600 ± 74 ng·h/mL
[3]; 3 mg/kg oral (gavage)
  AUC0-t: 467 ± 169 ng·h/mL
  Cmax: 91 ± 38 ng/mL
  Tmax: 4 h
  half-life: 156 ± 12 min
[3]; iv, 1 mg/kg i.v. (bolus)
  clearance: 27 ± 3 mL/min/kg
  half-life: 552 ± 132 min
  Vd: 22 ± 8 L/kg
[3]
  bioavailability: 26 ± 9%
[4]
  Kp: 1.92 ± 0.24

## O=C(N[C@H]1CCCC[C@@H]1O)C1=CN(Cc2ccc(F)c(F)c2)c2ccccc2O1 [Example 19, N-(cis-1S,2S-2-Hydroxycyclohexyl)-4-(3,4-difluorobenzyl)-4H-benzo[1,4]oxazine-2-carboxamide]
[1]
  EC50: 120 nM
[3]; 1 mg/kg i.v. (bolus)
  AUC0-t: 1240 ± 84 ng·h/mL
[3]; 3 mg/kg oral (gavage)
  AUC0-t: 2490 ± 223 ng·h/mL
  Cmax: 252 ± 17 ng/mL
  Tmax: 1.67 ± 0.6 h
  half-life: 222 ± 6 min
[3]; iv, 1 mg/kg i.v. (bolus)
  clearance: 13 ± 1 mL/min/kg
  half-life: 228 ± 30 min
  Vd: 4.4 ± 0.2 L/kg
[3]
  bioavailability: 67 ± 6%

## O=C(NC1CCOCC1O)C1=CN(Cc2cccc(F)c2F)c2ccccc2O1 (stereo not drawn) [Example 20, N-(3-Hydroxytetrahydrpyran-4-yl)-4-(2,3-difluorobenzyl)-4H-benzo[1,4]oxazine-2-carboxamide]
[1]
  EC50: 1250 nM
[2]
  Inference: Active
  Exploration time mean ± S.E.M, Familiar object: 12.17 ± 1.84 s
  Exploration time mean ± S.E.M, Novel object: 19.94 ± 3.02 s
[4]
  Kp: 0.82 ± 0.25

## O=C(N[C@H]1CCCC[C@@H]1O)C1=CN(Cc2cccc(F)c2F)c2ncccc2O1 [Example 33, N-(cis-1S,2S-2-Hydroxycyclohexyl)-4-(2,3-difluorobenzyl)-4H-pyrido[3,2-b][1,4]oxazine-2-carboxamide]
[1]
  EC50: 1180 nM
[3]; 1 mg/kg i.v. (bolus)
  AUC0-t: 452 ± 135 ng·h/mL
[3]; 3 mg/kg oral (gavage)
  AUC0-t: 719 ± 269 ng·h/mL
  Cmax: 159 ± 26 ng/mL
  Tmax: 1.5 ± 0.9 h
  half-life: 192 ± 120 min
[3]; iv, 1 mg/kg i.v. (bolus)
  clearance: 39 ± 10 mL/min/kg
  half-life: 72 ± 36 min
  Vd: 3.5 ± 1 L/kg
[3]
  bioavailability: 53 ± 20%
[4]
  Kp: 1.96 ± 0.91

## O=C(N[C@H]1CCCC[C@@H]1O)C1=CN(Cc2cccc(F)c2)c2cccc(F)c2O1 [Example 51, N-(cis-1S,2S-2-Hydroxycyclohexyl)-4-{3-fluorobenzyl}-8-fluoro-4H-benzo[1,4]oxazine-2-carboxamide]
[1]
  EC50: 420 nM
[3]; 1 mg/kg i.v. (bolus)
  AUC0-t: 533 ± 62 ng·h/mL
[3]; 3 mg/kg oral (gavage)
  AUC0-t: 371 ± 149 ng·h/mL
  Cmax: 132 ± 32 ng/mL
  Tmax: 1 h
  half-life: 138 ± 30 min
[3]; iv, 1 mg/kg i.v. (bolus)
  clearance: 31 ± 4 mL/min/kg
  half-life: 216 ± 180 min
  Vd: 9.8 ± 8 L/kg
[3]
  bioavailability: 23 ± 9%
[4]
  Kp: 1.93 ± 0.37

## O=C(N[C@H]1CCCC[C@@H]1O)C1=CN(Cc2ccccn2)c2ccccc2S1 [Example 92, N-(cis-1S,2S-2-Hydroxycyclohexyl)-4-{pyridin-2-ylmethyl}-4H-benzo[1,4]thiazine-2-carboxamide]
[1]
  EC50: 1470 nM
[3]; 1 mg/kg i.v. (bolus)
  AUC0-t: 262 ± 50 ng·h/mL
[3]; 3 mg/kg oral (gavage)
  AUC0-t: 255 ± 32 ng·h/mL
  Cmax: 195 ± 22 ng/mL
  Tmax: 0.33 ± 0.14 h
  half-life: 102 ± 60 min
[3]; iv, 1 mg/kg i.v. (bolus)
  clearance: 64 ± 11 mL/min/kg
  half-life: 48 ± 12 min
  Vd: 4.2 ± 0.7 L/kg
[3]
  bioavailability: 32 ± 4%

## O=C(N[C@H]1CCCC[C@@H]1O)C1=CN(Cc2ccccc2)c2ccccc2[S+]1[O-] (stereo partly drawn) [Example 94, N-(cis-1S,2S-2-Hydroxycyclohexyl)-4-benzyl-1-oxo-4H-benzo[1,4]thiazine-2-carboxamide]
[1]
  EC50: 1400 nM

## O=C(N[C@H]1CCCC[C@@H]1O)C1=CN(Cc2cccc(F)c2)c2ccccc2[S+]1[O-] (stereo partly drawn) [Example 95, N-(cis-1S,2S-2-Hydroxycyclohexyl)-4-{3-fluorobenzyl}-1-oxo-4H-benzo[1,4]thiazine-2-carboxamide]
[1]
  EC50: 1520 nM

## O=C(N[C@H]1CCCC[C@@H]1O)C1=CN(Cc2ccccn2)c2ccccc2[S+]1[O-] (stereo partly drawn) [Example 96, N-(cis-1 S, 2S-2-Hydroxycyclohexyl)-4-{pyridin-2-ylmethyl}-1-oxo-4H-benzo[1,4]thiazine-2-carboxamide]
[1]
  EC50: 2160 nM

## O=C(N[C@H]1CCCC[C@@H]1O)C1=CN(Cc2ccc(Cl)nc2)c2ccccc2[S+]1[O-] (stereo partly drawn) [Example 97, N-(cis-1S, 2S-2-Hydroxycyclohexyl)-4-{2-chloropyridin-5-ylmethyl}-1-oxo-4H-benzo[1,4]thiazine-2-carboxamide]
[1]
  EC50: 1060 nM
